From patent publication US20050261221A1, “Compositions and methods for enhanced delivery of compounds via transfection complexes” (priority 2004, published 2005)
Where “and” joins values, the source holds several entries; their conditions need not be identical. Equal entries are not always repeated. Entries after “also recorded” stand apart in the source; their conditions may differ.

What was measured:
[1] = tested on: vascular smooth muscle cells (VSMCs); experiment: Transfection of VSMCs with cationic phospholipid (EDOPC)-DNA complexes, β-galactosidase microplate fluorometric assay; type: cell-based, Wistar rats; settings: for Effect on transfection: 0.001-0.5 μM cytochalasin B for 3 h, then DNA-lipid complexes 3 h
Protocol: Primary vascular smooth muscle cells were obtained by removal of the thoracoabdominal aortas of Wistar rats, which were then stripped of endothelium and adventitia. Medial VSMCs were maintained in Dubecco's Modified Eagle's Medium (DMEM), 20% fetal bovine serum (FBS), 200 units/ml penicillin, 200 μg/ml streptomycin (all Gibco, Gaitherburg, Md.) at 37° C. with 5% CO2. At confluence, the cells were passaged using 0.25 mg/ml Trypsin/EDTA (Clonetics, Walkersville, Md.) and were used at passage 3-10 for these experiments.
The cells were seeded in 96-well plates at 24 h before transfection at densities to give about 80% confluence at the time of transfection. Normally, EDOPC was suspended in D-PBS at 1 mg/ml to form liposomes. Liposomes and plasmid DNA were diluted in serum-free cell culture medium to 60 μg/ml for lipid and to 20 μg/ml for DNA, and liposomes were pipetted into an equal volume of plasmid DNA solution at a 3:1 weight ratio and mixed gently. The resultant DNA-lipid complexes were incubated at room temperature for 15 min and then added to the cells that were either in medium lacking serum or medium containing 20% fetal bovine serum (FBS). At 3 h after addition of DNA-lipid complexes, except as stated otherwise, the cells were washed with PBS and fresh medium containing 20% FBS was added. Generally, the cells were incubated with free drugs in 20% FBS DMEM for the indicated duration, and then, unless otherwise described, the cells were washed with PBS and incubated with DNA-lipid complexes. For experiments involving co-treatment with taxol and colchicine, the cells were first incubated with taxol for 30 min and then colchicine was added to the medium. […] Subsequent steps were same as for the normal lipoplexes.
Cells were assayed for β-galactosidase activity 24 h after transfection with a microplate fluorometric assay, modified by inclusion of a heating step (50° C., 45 min) to inactivate endogenous enzyme activity. Following aspiration of the medium from each well, the cells were washed once with PBS and then lysed by addition of 100 μl lysis buffer (0.03% Triton X-100 in 100 mM HEPES, pH 7.8, containing 1 mM MgSO4, 10 mM KCl). The plates were placed at 50° C. for 45 min and then allowed to cool to room temperature. 10 μl 100 μM FDG (fluorescein di-β-D-galactopyranoside) was added into each well. Fluorescence was measured with a microplate fluorimeter (Model 7620, Cambridge Technology Inc.) after incubation at 37° C. for 3 h. Fluorescence intensity is proportional to β-galactosidase expression; 2000 fluorescence units corresponded approximately to 0.1 milliunit of β-galactosidase. The expression of VSMCs transfected with normal lipoplexes in absence of serum and any pretreatment was ˜0.1 milliunit per well.

[2] = tested on: nerve growth factor (NGF) mRNA; settings: reported [39]; cited from earlier work
[3] = cited from earlier work
[4] = 100 μM TLCK in fresh 20% FBS after 3 h lipoplex treatment

S=C(S)N1CCCC1 [PDTC, pyrrolidinedithiocarbamate]
inhibition at 10 µM ([1]; Rattus norvegicus, VSMC, read-out: Reduction of transfection with VB-lipoplexes (inhibition of vinblastine stimulation), 10 μM PDTC in fresh 20% FBS after 3 h lipoplex treatment): 85% | Transfection stimulation by VB-lipoplexes ([1]; after treatment with 10 μM PDTC): 5 ×

COc1cc([C@@H]2c3cc4c(cc3[C@H](O)[C@H]3COC(=O)[C@H]23)OCO4)cc(OC)c1OC [podophyllotoxin]
Fold increase of transfection means ± S.D. ([1]; optimal conditions: 20 μM free drug, 3 h pretreatment, 20% FBS): 14 fold and 14 ± 5.8 fold | Fold increase of transfection means ± S.D. ([1]; optimal conditions: 20 μM free drug, 3 h pretreatment, No serum): 26 fold and 26 ± 4.5 fold

CC[C@@]1([C@@H]2O[C@@H]([C@H]3O[C@@](O)(CO)[C@H](C)C[C@@H]3C)C[C@@H]2C)CC[C@H]([C@]2(C)CC[C@]3(C[C@H](O)[C@@H](C)[C@@H]([C@@H](C)[C@@H](OC)[C@H](C)C(=O)O)O3)O2)O1 [monensin]
Fold effect on transfection relative to no pretreatment ([1]; 1 μM monensin for 15 min, then normal DNA-lipid complexes (FIG. 6)): 9.5 fold

C=C1[C@@H](C)[C@H]2[C@H](Cc3ccccc3)NC(=O)[C@]23OC(=O)/C=C/[C@H](O)CCC[C@@H](C)C/C=C/[C@H]3[C@@H]1O [cytochalasin B]
Effect on the level of NGF mRNA [2]: does not increase | Effect on transfection [1]: No effect | Effect on transfection ([1]; listed as Cytochalasin B): no effect

CC[C@]1(O)C[C@@H]2CN(CCc3c([nH]c4ccccc34)[C@@](C(=O)OC)(c3cc4c(cc3OC)N(C)[C@H]3[C@@](O)(C(=O)OC)[C@H](OC(C)=O)[C@]5(CC)C=CCN6CC[C@]43[C@@H]65)C2)C1 [vinblastine]
Effect on the level of NGF mRNA [2]: increase | Stimulation of transfection of SMGA-β-Gal plasmid (smooth muscle γ-actin gene promoter) ([1]; CMV-IEP-β-Gal replaced with SMGA-β-Gal, preliminary result): not stimulated | Maximal stimulation of transgene expression ([1]; vinblastine incorporated into the lipoplexes): ~30 fold | Solubility in chloroform ([3]; chloroform): soluble | Solubility in water ([3]; water): essentially insoluble

CC(=O)O[C@H]1C(=O)[C@@]2(C)[C@H]([C@H](OC(=O)c3ccccc3)[C@]3(O)C[C@H](OC(=O)[C@H](O)[C@@H](NC(=O)c4ccccc4)c4ccccc4)C(C)=C1C3(C)C)[C@]1(OC(C)=O)CO[C@@H]1C[C@@H]2O [taxol]
Effect on colchicine's increase of NGF mRNA [2]: suppresses | Effect on the stimulation of transfection by colchicine ([1]; 4 μM taxol 30 min, then 0.8 μg/ml colchicine added): blocked | Effect on transfection efficiency, taxol alone ([1]; pretreatment with 4 μM taxol 3 h): no effect | Effect on the stimulation of VB-lipoplexes ([1]; pretreatment with taxol): blocked

COc1cc2c(c(OC)c1OC)-c1ccc(OC)c(=O)cc1[C@@H](NC(C)=O)CC2 [colchicine, Colchicine]
Effect on the level of NGF mRNA [2]: increase | Effect on transfection when added to cells simultaneously with lipoplexes ([1]; 0.05 μg/ml colchicine, simultaneous with lipoplexes, absence of serum): increased marginally | Effect on expression when added to cells simultaneously with lipoplexes ([1]; free colchicine added simultaneously with lipoplexes): not noticeably stimulated; also recorded: no stimulation | Fold increase of transfection (β-galactosidase expression) ([1]; pretreatment with 8 μg/ml free colchicine 3 h, 20% FBS): ~23 fold and 24 fold | Fold increase of transfection (β-galactosidase expression) ([1]; pretreatment with 8.0 μg/ml free colchicine 3 h, absence of serum): ~23 fold

Cc1ccc(S(=O)(=O)N[C@@H](CCCCN)C(=O)CCl)cc1 [TLCK, Nα-p-tosyl-L-lysine chloromethyl ketone]
Decrease of transfection of VB-lipoplexes (inhibition of vinblastine stimulation) [1, 4]: 66% | Decrease of transfection of normal lipoplexes [1, 4]: 50%

COC(=O)Nc1nc2ccc(C(=O)c3cccs3)cc2[nH]1 [Nocodazole, nocodazole]
Effect on the level of NGF mRNA [2]: increase | Fold increase of transfection means ± S.D. ([1]; optimal conditions: 50 μM free drug, 3 h pretreatment, 20% FBS): 14 ± 2.0 fold | Fold increase of transfection means ± S.D. ([1]; optimal conditions: 50 μM free drug, 3 h pretreatment, 20% FBS, listed as nocodazole): 14 fold | Fold increase of transfection means ± S.D. ([1]; optimal conditions: 50 μM free drug, 3 h pretreatment, No serum): 31 ± 5.0 fold | Fold increase of transfection means ± S.D. ([1]; optimal conditions: 50 μM free drug, 3 h pretreatment, No serum, listed as nocodazole): 31 fold

CC[C@]1(O)C[C@H]2CN(CCc3c([nH]c4ccccc34)[C@@](C(=O)OC)(c3cc4c(cc3OC)N(C=O)[C@H]3[C@@](O)(C(=O)OC)[C@H](OC(C)=O)[C@]5(CC)C=CCN6CC[C@]43[C@@H]65)C2)C1 [Vincristine, vincristine]
Fold increase of transfection means ± S.D. ([1]; optimal conditions: 1/50 (w/w) VC/lipid incorporated in lipid, 20% FBS during 3 h incubation with complexes): 39 ± 6.9 fold | Fold increase of transfection means ± S.D. ([1]; optimal conditions: 1/50 (w/w) VC/lipid incorporated in lipid, 20% FBS during 3 h incubation with complexes, listed as vincristine): 39 fold | Fold increase of transfection means ± S.D. ([1]; optimal conditions: 1/50 (w/w) VC/lipid incorporated in lipid, No serum during 3 h incubation with complexes): 25 ± 5.7 fold | Fold increase of transfection means ± S.D. ([1]; optimal conditions: 1/50 (w/w) VC/lipid incorporated in lipid, No serum during 3 h incubation with complexes, listed as vincristine): 25 fold
